Results taken from PubChem BioAssay (NCI).
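Exposure lasted 48 hours, with cells grown in 96-well plates and compounds tested at five concentrations. TGI is the concentration that stops growth completely.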 Where a SMILES comes first, the peptide text is derived from it. [ ]: non-standard residue; d: D form. The star is where a group is joined. ξ: configuration not given here. Propanoyl(3-(4-MeO-Ph)) = COc1ccc(CCC(=O)*)cc1; Thr(3ξ) = CC(O)[C@H](N)C(=O)O; dNMeL = CN[C@H](CC(C)C)C(=O)O; ξLac = CC(O)C(=O)O

Columns and labels:
Experiment in all cases: inhibition of tumour cell growth, NCI panel, 48 h
NCI-H460 lung = test system: NCI-H460 lung
RXF 393 renal = test system: RXF 393 renal
SF-539 CNS = test system: SF-539 CNS
EKVX NSCLC = test system: EKVX NSCLC
SNB-19 CNS = test system: SNB-19 CNS
A498 renal = test system: A498 renal
KM12 colon = test system: KM12 colon
SK-MEL-5 melanoma = test system: SK-MEL-5 melanoma
A549 NSCLC = test system: A549 NSCLC
MDA-N = test system: MDA-N
SN12C renal = test system: SN12C renal
SK-MEL-2 melanoma = test system: SK-MEL-2 melanoma
SR leukemia = test system: SR leukemia
NCI-H226 lung = test system: NCI-H226 lung
SK-OV-3 ovarian = test system: SK-OV-3 ovarian
PC-3 prostate = test system: PC-3 prostate
OVCAR-8 ovarian = test system: OVCAR-8 ovarian
786-0 renal = test system: 786-0 renal
MCF7 breast = test system: MCF7 breast
SW-620 colon = test system: SW-620 colon
NCI/ADR-RES ovarian = test system: NCI/ADR-RES ovarian
MDA-MB-231 breast = test system: MDA-MB-231 breast
M14 melanoma = test system: M14 melanoma
BT-549 breast = test system: BT-549 breast
HOP-62 NSCLC = test system: HOP-62 NSCLC
HCT-116 colon = test system: HCT-116 colon
OVCAR-5 ovarian = test system: OVCAR-5 ovarian
IGROV1 ovarian = test system: IGROV1 ovarian
K-562 leukemia = test system: K-562 leukemia
TK-10 renal = test system: TK-10 renal
DU-145 prostate = test system: DU-145 prostate
SK-MEL-28 melanoma = test system: SK-MEL-28 melanoma
MDA-MB-435 = test system: MDA-MB-435
UO-31 renal = test system: UO-31 renal
HCT-15 colon = test system: HCT-15 colon
UACC-62 melanoma = test system: UACC-62 melanoma
MOLT-4 leukemia = test system: MOLT-4 leukemia
SF-295 CNS = test system: SF-295 CNS
T-47D breast = test system: T-47D breast
NCI-H23 lung = test system: NCI-H23 lung
HS 578T breast = test system: HS 578T breast
ACHN renal = test system: ACHN renal
OVCAR-3 ovarian = test system: OVCAR-3 ovarian
HCC-2998 colon = test system: HCC-2998 colon
SF-268 CNS = test system: SF-268 CNS
HOP-92 NSCLC = test system: HOP-92 NSCLC
CCRF-CEM leukemia = test system: CCRF-CEM leukemia
HL-60(TB) leukemia = test system: HL-60(TB) leukemia
MALME-3M melanoma = test system: MALME-3M melanoma
U251 CNS = test system: U251 CNS
HT29 colon = test system: HT29 colon
XF 498 CNS = test system: XF 498 CNS
SNB-78 CNS = test system: SNB-78 CNS
RPMI-8226 leukemia = test system: RPMI-8226 leukemia
DMS 273 small cell lung = test system: DMS 273 small cell lung
COLO 205 colon = test system: COLO 205 colon
LXFL 529 NSCLC = test system: LXFL 529 NSCLC
CAKI-1 renal = test system: CAKI-1 renal
NCI-H522 lung = test system: NCI-H522 lung
KM20L2 colon = test system: KM20L2 colon
UACC-257 melanoma = test system: UACC-257 melanoma
SNB-75 CNS = test system: SNB-75 CNS
LOX IMVI melanoma = test system: LOX IMVI melanoma
OVCAR-4 ovarian = test system: OVCAR-4 ovarian

Measured: TGI

CCOC(=O)c1cn(CC)c2cc3c(cc2c1=O)CCS3(=O)=O
> 100 µM: NCI-H460 lung | RXF 393 renal | SF-539 CNS | EKVX NSCLC | SNB-19 CNS | A498 renal | KM12 colon | SK-MEL-5 melanoma | A549 NSCLC | MDA-N | SN12C renal | SK-MEL-2 melanoma | SR leukemia | NCI-H226 lung | SK-OV-3 ovarian | PC-3 prostate | OVCAR-8 ovarian | 786-0 renal | MCF7 breast | SW-620 colon | NCI/ADR-RES ovarian | MDA-MB-231 breast | M14 melanoma | BT-549 breast | HOP-62 NSCLC | HCT-116 colon | OVCAR-5 ovarian | IGROV1 ovarian | K-562 leukemia | TK-10 renal | DU-145 prostate | SK-MEL-28 melanoma | MDA-MB-435 | UO-31 renal | HCT-15 colon | UACC-62 melanoma | MOLT-4 leukemia | SF-295 CNS | T-47D breast | NCI-H23 lung | HS 578T breast | ACHN renal | OVCAR-3 ovarian | HCC-2998 colon | SF-268 CNS | HOP-92 NSCLC | CCRF-CEM leukemia | HL-60(TB) leukemia | MALME-3M melanoma | U251 CNS | HT29 colon

CN(C)C(=S)/N=c1\ss/c(=N\C(=S)N(C)C)n1-c1ccc(Cl)cc1
> 100 µM: NCI-H460 lung | RXF 393 renal | SF-539 CNS | EKVX NSCLC | SNB-19 CNS | XF 498 CNS | A498 renal | SNB-78 CNS | KM12 colon | A549 NSCLC | SN12C renal | SK-MEL-2 melanoma | RPMI-8226 leukemia | SR leukemia | NCI-H226 lung | DMS 273 small cell lung | SK-OV-3 ovarian | OVCAR-8 ovarian | 786-0 renal | SW-620 colon | M14 melanoma | HOP-62 NSCLC | COLO 205 colon | HCT-116 colon | LXFL 529 NSCLC | OVCAR-5 ovarian | IGROV1 ovarian | K-562 leukemia | TK-10 renal | SK-MEL-28 melanoma | CAKI-1 renal | UO-31 renal | HCT-15 colon | UACC-62 melanoma | MOLT-4 leukemia | SF-295 CNS | NCI-H23 lung | NCI-H522 lung | KM20L2 colon | UACC-257 melanoma | SNB-75 CNS | ACHN renal | OVCAR-3 ovarian | SF-268 CNS | HOP-92 NSCLC | CCRF-CEM leukemia | HL-60(TB) leukemia | U251 CNS | LOX IMVI melanoma | HT29 colon

O=C1c2ccccc2-c2nnc(-c3ccc(Cl)cc3)cc21
> 10 µM: NCI-H460 lung | RXF 393 renal | SF-539 CNS | EKVX NSCLC | SNB-19 CNS | A498 renal | KM12 colon | SK-MEL-5 melanoma | A549 NSCLC | MDA-N | SN12C renal | SK-MEL-2 melanoma | RPMI-8226 leukemia | SR leukemia | NCI-H226 lung | SK-OV-3 ovarian | PC-3 prostate | OVCAR-8 ovarian | 786-0 renal | MCF7 breast | SW-620 colon | NCI/ADR-RES ovarian | MDA-MB-231 breast | M14 melanoma | BT-549 breast | HOP-62 NSCLC | COLO 205 colon | HCT-116 colon | OVCAR-5 ovarian | IGROV1 ovarian | K-562 leukemia | DU-145 prostate | SK-MEL-28 melanoma | CAKI-1 renal | MDA-MB-435 | UO-31 renal | HCT-15 colon | UACC-62 melanoma | MOLT-4 leukemia | SF-295 CNS | T-47D breast | NCI-H23 lung | NCI-H522 lung | HS 578T breast | OVCAR-4 ovarian | UACC-257 melanoma | SNB-75 CNS | ACHN renal | OVCAR-3 ovarian | HCC-2998 colon | SF-268 CNS | HOP-92 NSCLC | CCRF-CEM leukemia | HL-60(TB) leukemia | MALME-3M melanoma | U251 CNS | LOX IMVI melanoma | HT29 colon

COC(=O)[C@@H](NC(=O)[C@@H](CC(C)C)N(C)C(=O)[C@@H]1CCCN1C(=O)C(C)O)C(C)OC(=O)CCc1ccc(OC)cc1 (stereo partly drawn) (H-[ξLac]P[dNMeL][Thr(3ξ)](Propanoyl(3-(4-MeO-Ph)))-OMe)
> 100 µM: NCI-H460 lung | RXF 393 renal | SF-539 CNS | EKVX NSCLC | SNB-19 CNS | A498 renal | KM12 colon | SK-MEL-5 melanoma | A549 NSCLC | MDA-N | SN12C renal | SK-MEL-2 melanoma | RPMI-8226 leukemia | SR leukemia | NCI-H226 lung | SK-OV-3 ovarian | PC-3 prostate | OVCAR-8 ovarian | 786-0 renal | MCF7 breast | SW-620 colon | NCI/ADR-RES ovarian | MDA-MB-231 breast | M14 melanoma | BT-549 breast | HOP-62 NSCLC | COLO 205 colon | HCT-116 colon | OVCAR-5 ovarian | IGROV1 ovarian | K-562 leukemia | TK-10 renal | DU-145 prostate | SK-MEL-28 melanoma | CAKI-1 renal | MDA-MB-435 | UO-31 renal | HCT-15 colon | UACC-62 melanoma | MOLT-4 leukemia | SF-295 CNS | T-47D breast | NCI-H23 lung | NCI-H522 lung | HS 578T breast | OVCAR-4 ovarian | UACC-257 melanoma | SNB-75 CNS | ACHN renal | OVCAR-3 ovarian | HCC-2998 colon | SF-268 CNS | HOP-92 NSCLC | CCRF-CEM leukemia | HL-60(TB) leukemia | MALME-3M melanoma | U251 CNS | LOX IMVI melanoma | HT29 colon
